The results in this text go back to publication PMC4823724 (Scientific Reports, 2016).

The subject of assay [1] is RpfG.
Assay [2] concerns RpfG. This is another data set of the same source.
RpfG, sequence (G7TEN6 1-378): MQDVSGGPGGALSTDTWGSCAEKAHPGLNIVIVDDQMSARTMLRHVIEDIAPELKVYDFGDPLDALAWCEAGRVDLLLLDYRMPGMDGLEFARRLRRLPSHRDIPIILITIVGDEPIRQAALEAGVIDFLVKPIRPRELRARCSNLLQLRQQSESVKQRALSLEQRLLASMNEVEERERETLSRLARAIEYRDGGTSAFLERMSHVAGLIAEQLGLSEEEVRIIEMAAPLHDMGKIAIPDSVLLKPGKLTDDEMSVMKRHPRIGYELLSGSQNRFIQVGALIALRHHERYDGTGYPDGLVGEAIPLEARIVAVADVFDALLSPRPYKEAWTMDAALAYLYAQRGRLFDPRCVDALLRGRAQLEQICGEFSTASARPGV

With `O=[N+]([O-])c1ccc(OP(=O)(O)Oc2ccc([N+](=O)[O-])cc2)cc1` [bis(p-nitrophenyl) phosphate], the “colorimetric phosphodiesterase assay at 410 nm” value in assay [1] is “RpfG efficiently converted bis(p-nitrophenyl) phosphate into p-nitrophenol”.

As for `Nc1nc2c(ncn2[C@@H]2O[C@@H]3COP(=O)(O)O[C@H]4[C@@H](O)[C@H](n5cnc6c(=O)[nH]c(N)nc65)O[C@@H]4COP(=O)(O)O[C@H]3[C@H]2O)c(=O)[nH]1` [c-di-GMP], in assay [2], the HPLC phosphodiesterase assay result is recorded as “degraded product pGpG was produced when RpfG was incubated with c-di-GMP”.
